Tests used:
mouse CD8 T cells = experiment: Cytokine production by activated mouse CD8 T cells; assay type: cell-based
Protocol: MTA was added into culture for 72 h.
MTA was added into culture for 72 h. […] Therefore, a triple combination therapy with pemetrexed +A2BR antagonists+anti-PD-L1 (or anti-PD1) can be ultra-effective for MTAP-deficient malignancies through five different mechanisms: (1) direct cytotoxicity (from pemetrexed); (2) decrease of MTA levels (from pemetrexed cytotoxicity) and thus alleviation of inhibition of IFN signaling and T cell function; (3) increases in levels of tumor PD-L1 expression (from pemetrexed); (4) T cell activation by mitigating MTA inhibition (A2BR antagonists); and (5) further T cell activation by inhibiting checkpoint molecule PD-L1 (anti-PD-L1 or anti-PD1).

activated human T cells = details: incubation with MTA; cited from earlier work
PD-L1 [1] = experiment: PD-L1 expression in vivo on MB49 tumors; details: FIG. 4C
Description: (§1) For example, pemetrexed induced PD-L1 in MTAP-deficient bladder cancer cell lines (FIG. 4A). […] Based on this, FIG. 6 provides a proposed phase 2 trial schema for combination treatment with pemetrexed and an anti-PD-L1 therapy (e.g., avelumab).

PD-L1 [2] = experiment: PD-L1 expression on tumor cells with anti-folate agents; details: both in vitro and in vivo
Description: Many types of tumors contain homozygous deletion of the methylthioadenosine phosphorylase (MTAP) gene, which encodes an essential enzyme to catalyze methylthioadenosine (MTA) in the salvage pathway for adenosine synthesis.

MTAP-wild type tumor = experiment: Tumor growth in xenograft mouse model, MTAP-wild type tumor; assay type: in vivo; details: FIG. 2D
Description: (§2) Asterisk represents a patient that died of a car accident and thus was not evaluable.
(§3) Pemetrexed inhibited MTAP-deficient human tumor growth (FIG. 2C) but not MTAP-wild type tumor growth (FIG. 2D) in a xenograft mouse model.

MB49 tumors = experiment: Immune cells in MB49 tumors with in vivo pemetrexed treatment; details: FIG. 4B
Description: as §1

PD-L1 [3] = experiment: PD-L1 expression in MTAP-deficient bladder cancer cell lines after pemetrexed; assay type: cell-based; details: FIG. 4A
Description: as §1

[4] = test system: MTAP-deficient vs. MTAP-wild type human bladder cancer cell lines; experiment: Apoptosis (sub-G1 population) after pemetrexed in human bladder cancer cell lines; assay type: cell-based; details: FIG. 2A
Description: as §2, §3

[5] = test system: MTAP knockdown human bladder cell lines; experiment: Apoptosis (sub-G1 population) after MTAP knockdown in human bladder cancer cell lines; assay type: cell-based; details: FIG. 2B
Description: as §2, §3

[6] = test system: MTAP-deficient bladder cancer vs MTAP-wild type bladder cancer; experiment: Response of bladder cancer patients to pemetrexed (RECIST); assay type: in vivo, human
Description: as §2, §3

[7] = test system: MTAP-deficient human tumor; experiment: Tumor growth in xenograft mouse model, MTAP-deficient tumor; assay type: in vivo; details: FIG. 2C
Description: as §2, §3

[8] = test system: MTAP-knockdown human tumors; experiment: Tumor growth in xenograft mouse model, MTAP-knockdown tumor; assay type: in vivo; details: FIG. 2E
Description: as §2, §3

N#Cc1c(N)nc(SCC(N)=O)c(C#N)c1-c1ccc(OCC2CC2)cc1 [Bay60-6385]
production of INF-γ (mouse CD8 T cells; mouse CD8 T cells activated with anti-CD3/anti-CD28, 72 h, FIGS. 5A & 7A): mimic this inhibition
production of TNF-α (mouse CD8 T cells; mouse CD8 T cells activated with anti-CD3/anti-CD28, 72 h, FIGS. 5B & 7B): mimic this inhibition

CSC[C@H]1O[C@@H](n2cnc3c(N)ncnc32)[C@H](O)[C@@H]1O [MTA, methylthioadenosine]
cytotoxicity to activated human T cells (activated human T cells): cytotoxic

CCCn1c(=O)[nH]c2nc(-c3ccc(S(=O)(=O)N4CCN(c5ccc(Cl)cc5)CC4)cc3)[nH]c2c1=O [PSB-603]
rescue of MTA-induced inhibition on the production of INF-γ (mouse CD8 T cells; PSB603+MTA, mouse CD8 T cells, FIG. 7A): partially rescue
rescue of MTA-induced inhibition on the production of TNF-α (mouse CD8 T cells; PSB603+MTA, mouse CD8 T cells, FIG. 7B): partially rescue

Nc1nc2[nH]cc(CCc3ccc(C(=O)N[C@@H](CCC(=O)O)C(=O)O)cc3)c2c(=O)[nH]1 [Pemetrexed]
PD-L1 expression in vivo (PD-L1 [1]): induced PD-L1
PD-L1 expression on tumor cells (PD-L1 [2]): induce PD-L1 expression
tumor growth (MTAP-wild type tumor): not
CD4/8 T cells in tumors (MB49 tumors): increased
MDSCs in tumors (MB49 tumors): decreased
dendritic cells in tumors (MB49 tumors): increased
macrophages in tumors (MB49 tumors): increased
PD-L1 expression (PD-L1 [3]): induced PD-L1
potency in inducing apoptosis (sub-G1 population), MTAP-deficient vs. MTAP-wild type [4]: at least 40 fold
apoptosis with pemetrexed treatment [5]: significant apoptosis
response rate, MTAP-deficient vs MTAP-wild type bladder cancer patients ([6]; combined retrospective and prospective data, FIG. 2H): higher response rate
response rate, MTAP-deficient vs MTAP-wild type bladder cancer patients ([6]; prospective data, FIG. 2G): higher response rate
response rate, MTAP-deficient vs MTAP-wild type bladder cancer patients ([6]; retrospective data, FIG. 2F): higher response rate
tumor growth [7]: inhibited
tumor growth [8]: inhibited growth

CN(Cc1cnc2nc(N)nc(N)c2n1)c1ccc(C(=O)N[C@@H](CCC(=O)O)C(=O)O)cc1 [methotrexate, Methotrexate]
PD-L1 expression on tumor cells (PD-L1 [2]): induce PD-L1 expression
